Measured values: US20230399312A1, “SUBSTITUTED PYRIMIDINES AND METHODS OF USE” (THERAVANCE BIOPHARMA R&D IP, LLC, priority 2020, published 2023)

Key:
[1] = tested on: TGF-β-stimulated SMAD3 phosphorylation in BEAS-2B cells; experiment: Cellular ALK5 potency assay, inhibition of TGF-β stimulated pSMAD3 formation in BEAS-2B cells; format: cell-based; conditions: Homo sapiens, pSMAD3, TGF-β 10 ng/mL, read-out: BEAS2B pIC50 (converted)
How it was run: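 BEAS-2B cells, HBSS/25 mM HEPES/1% BSA buffer; cpd 1 h, 37 °C; TGF-β 10 ng/mL final, 30 min; lysis, AlphaLISA pSMAD3 read next day. pIC50 vs stimulated no-compound baseline.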

[2] = biological target: T1, recombinant human ALK5 (TGF-βR1) protein (Homo sapiens, UniProt P36897); experiment: Biochemical ALK5 (TGF-βR1) assay to measure pKi (LANCE Ultra ULight kinase assay); conditions: apparent pKi, converted from pIC50 by Cheng-Prusoff
T1 construct: purchased Life Technologies PR9075A
T1 sequence (P36897 34-503): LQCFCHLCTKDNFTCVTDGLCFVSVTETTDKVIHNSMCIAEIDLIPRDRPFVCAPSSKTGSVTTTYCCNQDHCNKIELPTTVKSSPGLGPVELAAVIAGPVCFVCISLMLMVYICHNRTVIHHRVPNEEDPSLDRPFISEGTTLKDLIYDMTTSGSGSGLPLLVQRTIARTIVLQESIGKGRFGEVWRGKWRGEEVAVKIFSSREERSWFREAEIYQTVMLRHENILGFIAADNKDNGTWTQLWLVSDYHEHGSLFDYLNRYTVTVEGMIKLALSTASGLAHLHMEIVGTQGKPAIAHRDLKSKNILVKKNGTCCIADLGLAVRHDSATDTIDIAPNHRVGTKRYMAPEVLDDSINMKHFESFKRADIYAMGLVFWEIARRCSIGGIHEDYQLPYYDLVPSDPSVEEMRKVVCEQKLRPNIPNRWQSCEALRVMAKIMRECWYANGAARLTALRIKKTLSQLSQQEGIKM
How it was run: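 Cmpd + enzyme, 60 min RT; ATP from 125 μM (5×) stock, 60 min 37 °C; stop 12 mM EDTA/Eu anti-pThr1342 Topo2α Ab (pH 7.0 buffer); TR-FRET 665 nm. DMSO = max, SD-208 = min signal. 4-PL pIC50 → pKi (Cheng-Prusoff).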

Row | SMILES | Ki [2] [nM] | IC50 [1] [nM]
1 | Cc1cccc(-c2nccc(Nc3ccnc(Nc4ccccc4)n3)n2)n1 [Compound 43, N4-[2-(6-methyl-2-pyridyl)pyrimidin-4-yl]-N2-phenyl-pyrimidine-2,4-diamine] | 0.398 to 3.16 | ≤ 20
2 | CCOC(=O)Cn1cc(-c2ccc(Nc3nccc(Nc4ccnc(-c5cccc(C)n5)n4)n3)cc2)cn1 [Compound 47, ethyl 2-[4-[4-[[4-[[2-(6-methyl-2-pyridyl)pyrimidin-4-yl]amino]pyrimidin-2-yl]amino]phenyl]pyrazol-1-yl]acetate] | 0.398 to 3.16 | 25.1 to 158
3 | Cc1cccc(-c2nccc(Nc3ccnc(Nc4ccc(Cl)c(CN5CCNCC5)c4)n3)n2)n1 [Compound 49, N2-[4-chloro-3-(piperazin-1-ylmethyl)phenyl]-N4-[2-(6-methyl-2-pyridyl)pyrimidin-4-yl]pyrimidine-2,4-diamine] | 0.0398 to 0.316 | 25.1 to 158
4 | Cc1cccc(-c2nccc(Nc3ccnc(Nc4ccc(CN5CCC(C(=O)OC6CNC6)C5)cc4)n3)n2)n1 (stereo not shown) [Compound 50, azetidin-3-yl 1-[[4-[[4-[[2-(6-methyl-2-pyridyl)pyrimidin-4-yl]amino]pyrimidin-2-yl]amino]phenyl]methyl] pyrrolidine-3-carboxylate] | 0.0398 to 0.316 | 25.1 to 158
5 | Cc1cccc(-c2nccc(Nc3ccnc(Nc4ccc(C(=O)O[C@H]5CCN(C)C5)cc4)n3)n2)n1 [Compound 51, [(3S)-1-methylpyrrolidin-3-yl] 4-[[4-[[2-(6-methyl-2-pyridyl)pyrimidin-4-yl]amino]pyrimidin-2-yl]amino]benzoate] | 0.0398 to 0.316 | 25.1 to 158
6 | Cc1cccc(-c2nccc(Nc3ccnc(Nc4ccc(C(=O)O[C@@H]5CCN(C)C5)s4)n3)n2)n1 [Compound 52, [(3R)-1-methylpyrrolidin-3-yl] 5-[[4-[[2-(6-methyl-2-pyridyl)pyrimidin-4-yl]amino]pyrimidin-2-yl]amino]thiophene-2-carboxylate] | 0.0398 to 0.316 | 25.1 to 158
7 | Cc1cccc(-c2nccc(Nc3ccnc(Nc4cnn(CCN)c4)n3)n2)n1 [Compound 53, N2-[1-(2-aminoethyl)pyrazol-4-yl]-N4-[2-(6-methyl-2-pyridyl)pyrimidin-4-yl]pyrimidine-2,4-diamine] | 0.0398 to 0.316 | 200 to 1260
8 | Cc1cccc(-c2nccc(Nc3ccnc(Nc4ccc(OCCO)cc4)n3)n2)n1 [Compound 54, 2-[4-[[4-[[2-(6-methyl-2-pyridyl)pyrimidin-4-yl]amino]pyrimidin-2-yl]amino]phenoxy]ethanol] | 0.398 to 3.16 | 25.1 to 158
9 | Cc1cccc(-c2nccc(Nc3ccnc(Nc4ccc(N5CCCC(C(=O)OC6CCN(C)C6)C5)cc4)n3)n2)n1 (stereo not shown) [Compound 55, (1-methylpyrrolidin-3-yl) 1-[4-[[4-[[2-(6-methyl-2-pyridyl)pyrimidin-4-yl]amino]pyrimidin-2-yl]amino]phenyl]piperidine-3-carboxylate] | 0.0398 to 0.316 | 25.1 to 158
10 | Cc1cccc(-c2nccc(Nc3ccnc(Nc4ccc(-c5cnn(C)c5)cc4)n3)n2)n1 [Compound 56, N2-[4-(1-methylpyrazol-4-yl)phenyl]-N4-[2-(6-methyl-2-pyridyl)pyrimidin-4-yl]pyrimidine-2,4-diamine] | 0.398 to 3.16 | 25.1 to 158
11 | Cc1cccc(-c2nccc(Nc3ccnc(Nc4ccc(N5CCNCC5)c(CC(=O)OCC5CNC5)c4)n3)n2)n1 [Compound 57, azetidin-3-ylmethyl 2-[5-[[4-[[2-(6-methyl-2-pyridyl)pyrimidin-4-yl]amino]pyrimidin-2-yl]amino]-2-piperazin-1-yl-phenyl]acetate] | 0.0398 to 0.316 | 200 to 1260
12 | Cc1cccc(-c2nccc(Nc3ccnc(Nc4ccc(NC(=O)C5(O)CCNC5)cc4)n3)n2)n1 (stereo not shown) [Compound 58, 3-hydroxy-N-[4-[[4-[[2-(6-methyl-2-pyridyl)pyrimidin-4-yl]amino]pyrimidin-2-yl]amino]phenyl]pyrrolidine-3-carboxamide] | 0.0398 to 0.316 | ≤ 20
13 | COC(=O)C1CCN(c2ccc(Nc3nccc(Nc4ccnc(-c5cccc(C)n5)n4)n3)cc2)CC1 [Compound 60, methyl 1-[4-[[4-[[2-(6-methyl-2-pyridyl)pyrimidin-4-yl]amino]pyrimidin-2-yl]amino]phenyl]piperidine-4-carboxylate] | 0.0398 to 0.316 | 25.1 to 158
14 | Cc1cccc(-c2nccc(Nc3ccnc(Nc4ccc(C)c(CO)c4)n3)n2)n1 [Compound 61, [2-methyl-5-[[4-[[2-(6-methyl-2-pyridyl)pyrimidin-4-yl]amino]pyrimidin-2-yl]amino]phenyl]methanol] | 0.0398 to 0.316 | 25.1 to 158
15 | COC(=O)c1ccc(Nc2nccc(Nc3ccnc(-c4cccc(C)n4)n3)n2)cc1 [Compound 62, methyl 4-[[4-[[2-(6-methyl-2-pyridyl)pyrimidin-4-yl]amino]pyrimidin-2-yl]amino]benzoate] | 0.398 to 3.16 | 25.1 to 158

Further lines, with some results ahead:

Row | Ki [2] [nM] | SMILES | IC50 [1] [nM]
16 | 0.0398 to 0.316 | CCN1CCN(S(=O)(=O)c2ccc(Nc3nccc(Nc4ccnc(-c5cccc(C)n5)n4)n3)cc2)CC1 [Compound 38, N2-[4-(4-ethylpiperazin-1-yl)sulfonylphenyl]-N4-[2-(6-methyl-2-pyridyl)pyrimidin-4-yl]pyrimidine-2,4-diamine] | 25.1 to 158
17 | 0.0398 to 0.316 | Cc1cccc(-c2nccc(Nc3ccnc(Nc4cccc(CN5CCSCC5)c4)n3)n2)n1 [Compound 39, N4-[2-(6-methyl-2-pyridyl)pyrimidin-4-yl]-N2-[3-(thiomorpholinomethyl)phenyl] pyrimidine-2,4-diamine] | 25.1 to 158
18 | 0.0398 to 0.316 | Cc1cccc(-c2nccc(Nc3ccnc(Nc4csc(C(=O)NC5(CO)CCNC5)c4)n3)n2)n1 (stereo not shown) [Compound 40, N-[3-(hydroxymethyl)pyrrolidin-3-yl]-4-[[4-[[2-(6-methyl-2-pyridyl)pyrimidin-4-yl]amino]pyrimidin-2-yl]amino]thiophene-2-carboxamide] | 25.1 to 158
19 | 0.0398 to 0.316 | Cc1cccc(-c2nccc(Nc3ccnc(Nc4ccc(N5CCNCC5CC(=O)OCC(C)C)cc4)n3)n2)n1 (stereo not shown) [Compound 41, isobutyl 2-[1-[4-[[4-[[2-(6-methyl-2-pyridyl)pyrimidin-4-yl]amino]pyrimidin-2-yl]amino]phenyl]piperazin-2-yl]acetate] | 25.1 to 158
20 | ≤ 0.0316 | Cc1cccc(-c2nccc(Nc3ccnc(Nc4nc(C(=O)NCC5CNC5)cs4)n3)n2)n1 [Compound 42, N-(azetidin-3-ylmethyl)-2-[[4-[[2-(6-methyl-2-pyridyl)pyrimidin-4-yl]amino]pyrimidin-2-yl]amino]thiazole-4-carboxamide] | 25.1 to 158
21 | 0.0398 to 0.316 | Cc1cccc(-c2nccc(Nc3ccnc(Nc4nc(C(=O)NC5CNC5)cs4)n3)n2)n1 [Compound 44, N-(azetidin-3-yl)-2-[[4-[[2-(6-methyl-2-pyridyl)pyrimidin-4-yl]amino]pyrimidin-2-yl]amino]thiazole-4-carboxamide] | 25.1 to 158
22 | 0.0398 to 0.316 | Cc1cccc(-c2nccc(Nc3ccnc(Nc4cccc(CO)c4)n3)n2)n1 [Compound 45, [3-[[4-[[2-(6-methyl-2-pyridyl)pyrimidin-4-yl]amino]pyrimidin-2-yl]amino]phenyl]methanol] | ≤ 20
23 | ≤ 0.0316 | Cc1cccc(-c2nccc(Nc3ccnc(Nc4ccc(N5CCN[C@H](CO)C5)cc4)n3)n2)n1 [Compound 46, [(2S)-4-[4-[[4-[[2-(6-methyl-2-pyridyl)pyrimidin-4-yl]amino]pyrimidin-2-yl]amino]phenyl]piperazin-2-yl]methanol] | 25.1 to 158
